Measurements: patent publication US20240368123A1, “AROMATIC RING-CONTAINING BIOLOGICAL ANTAGONIST, AND PREPARATION METHOD THEREFOR AND USE THEREOF” (SHANGHAI HANSOH BIOMEDICAL CO., LTD., priority 2021, published 2024)

Assays:
AT1 receptors = biological target: T1, AT1 receptors (Homo sapiens, UniProt P30556); experiment: Effect on calcium current in cells stably expressing AT1 receptors (FLIPR, antagonist mode); type: cell-based; conditions: HEK293-AT1 cells, Fluo-8 AM, FLIPR Tetra; read-out: IC50 values of compounds on calcium current in cells stably expressing AT1 receptors
T1 construct: host or cells: HEK293
T1 sequence (P30556 1-359): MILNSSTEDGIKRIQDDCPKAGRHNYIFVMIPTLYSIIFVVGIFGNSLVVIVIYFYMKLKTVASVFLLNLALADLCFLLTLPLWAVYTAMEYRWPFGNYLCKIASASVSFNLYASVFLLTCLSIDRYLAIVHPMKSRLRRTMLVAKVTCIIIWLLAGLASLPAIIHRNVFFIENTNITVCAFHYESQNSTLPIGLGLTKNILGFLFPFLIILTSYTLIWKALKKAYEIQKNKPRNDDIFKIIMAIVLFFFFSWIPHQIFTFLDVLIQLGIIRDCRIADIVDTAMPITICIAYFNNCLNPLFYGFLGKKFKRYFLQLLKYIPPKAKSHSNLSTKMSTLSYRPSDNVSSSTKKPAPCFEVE
Source text: Test Example 1. Determination of the Effect of the Compounds of the Present Invention on Calcium Current in Cells Stably Expressing AT1 Receptors
Antagonistic effect of test compounds on HEK293-AT1 cell activity
• DMEM, high glucose (Gibco: 12100); • Fetal bovine serum (Biosera: FB-1058/500); • P/S (Biosera: XC-A4122); • 5× Matrigel (Corning: 354230); • HBSS (Sigma: H1387); • HEPES (Invitrogen: 15630080); • Fluo-8 AM (AAT Bioquest: 21080); • Probenecid (Sigma: P8761); • Pluronic F-127 (Sigma: P2443-250G); • Angiotensin III TFA (MCE: HY-113035A); • Irbesartan (MCE: HY—B0202); • 1000× Fluo-8 AM (2 mM): Fluo-8 AM was dissolved in DMSO, the mixture was shaken for 1-2 min, sub-packaged and stored at −20° C.; • Complete culture medium: DMEM+10% FBS+1×P/S; • Cell seeding medium: DMEM+10% FBS+1×PS; • Experimental buffer 1: 1×HBSS+20 mM HEPES+1 mM Probenecid+0.025% Pluronic F-127; • Experimental buffer 2: 1×HBSS+20 mM HEPES+0.075% Pluronic F-127; • 1× Matrigel: 5× Matrigel was diluted with DMEM; • Cell line: HDB HEK293-AT1.
• 1) HEK293-AT1 cell line was cultured in complete culture medium at 37° C., 5% CO2 to 70%-90% confluence. • 2) the 384-well cell plate was coated with 1× Matrigel with 5 μL/well at room temperature for 10 to 30 min. • 3) the cells were digested and resuspended in cell seeding medium, inoculation was performed at 8,000 cells/well/20 μL in a 384-well cell culture plate, and the cells were cultured at 37° C., 5% CO2 for 24 h. • 4) the cell culture plate was taken out of the CO2 incubator and equilibrated at room temperature for 10 min. • 5) 1000× Fluo-8 AM was taken and diluted to 1× Fluo-8 AM with experimental buffer 1 that has been equilibrated to room temperature, with a concentration of 2 μM. • 6) the culture medium was removed from the cell culture plate, 20 μL of 1× Fluo-8 AM was added to each well, the mixture was centrifuged at 300 rpm for 60 seconds at room temperature, and incubated at room temperature in the dark for 1 h. • 7) positive control compound and test compound working solution (3×) were formulated: • (1) instrument Bravo was used to dilute the compound to 11 concentration points on the 384-well Echo compound plate (LABCYTE: LP-0200); • (2) instrument ECHO was used to transfer 90 nL of compound per well (compound storage concentration, such as the highest concentration point 10 mM) to the 384-well compound plate (PE: 6008590); • (3) Multidrop Combi was used to add 30 μL of experimental buffer 2 to the 384-well compound plate (PE: 6008590), the positive control compound and test compound were diluted to 30 μM (3×), and placed at room temperature until use. • 8) FLIPR Tetra was used to add 10 μL of diluted 3× compound into the experimental well of the corresponding 384-well cell plate, the compound and cells were incubated for 10 min at room temperature, then 10 μL of diluted 4× agonist was added, and the data was read and collected at the same time.
FLIPR Tetra was used to read and collect the fluorescence signal value (RFU). The maximum RFU value was used to calculate the percent activation data based on the readings of the Low control (DMSO control) and High control (100 nM positive compound) experimental groups {% activation rate=(RFUsample−RFUlow control)/(RFUhigh control−RFUlow control)×100}. The concentration of the test compound was 11 concentrations after diluting the reaction system 3 times, ranging from 10 uM to 0.17 nM.

[1] = Rat pharmacokinetic evaluation test, oral administration; type: in vivo; conditions: male, SD rats, p.o. 5 mg/kg, plasma
Description: SD rats were used as test animals to study the pharmacokinetic behavior of the compounds of the present invention in the rat body (plasma) after oral administration at a dose of 5 mg/kg.
3 SD rats/group, male, from Shanghai Jiesijie Experimental Animal Co., Ltd., animal production license number (SCXK (Shanghai) 2013-0006 N0.311620400001794).
• 0.5% CMC-Na (1% Tween80) was dissolved with ultrasound, and formulated into a clear solution or homogeneous suspension.
• p.o. respectively after the rats were fasted overnight; • the p.o. dose was 5 mg/kg and the administration volume was 10 mL/kg.
After oral administration of rats, 0.2 mL of blood was collected from the jugular vein at 0.25 h, 0.5 h, 1.0 h, 2.0 h, and 4.0 h, placed in an EDTA-2K test tube, centrifuged at 6000 rpm for 6 min at 4° C. to separate plasma which was stored at −80° C.; the rats can eat 4 h after administration.
• 1) 160 μL of acetonitrile was added to 40 μL of plasma sample for precipitation, mixed and centrifuged at 3500×g for 5 to 20 min. • 2) the treated supernatant solution was taken and subjected to LC/MS/MS to analyze the concentrations of the test compounds. LC/MS/MS analysis instrument: AB Sciex API 4000 Qtrap.
• Liquid phase conditions: Shimadzu LC-20AD pump • chromatographic column: AgilentZORBAX XDB-C18 (50×2.1 mm, 3.5 μm) mobile phase: liquid A was 0.1% aqueous formic acid solution, liquid B was acetonitrile • flow rate: 0.4 mL/min • Elution time: 0-4.0 min, the eluent was as follows:
The main pharmacokinetic parameters were calculated using WinNonlin 6.1.

Structure (SMILES) | IC50 (AT1 receptors) [nM] | other results
CCCCC1=NC2(CCCC2)C(=O)N1Cc1ccc(-c2ccccc2S(=O)(=O)Nc2noc(C)c2Cl)c(COC)c1 [Example 53, 4′-((2-butyl-4-oxo-1,3-diazaspiro[4.4]non-1-en-3-yl)methyl)-N-(4-chloro-5-methylisoxazol-3-yl)-2′-(methoxymethyl)-[1,1′-biphenyl]-2-sulfonamide] | 9.1 | 
CCCCC1=NC2(CCCC2)C(=O)N1Cc1ccc(-c2ccccc2S(=O)(=O)Nc2noc(C)c2Cl)c(OCCC)c1 [Example 55, 4′-((2-butyl-4-oxo-1,3-diazaspiro[4.4]non-1-en-3-yl)methyl)-N-(4-chloro-5-methylisoxazol-3-yl)-2′-propoxy-[1,1′-biphenyl]-2-sulfonamide] | 3.7 | 
CCCCC1=NC2(CCCC2)C(=O)N1Cc1ccc(-c2ccccc2S(=O)(=O)Nc2noc(C)c2Cl)c(COC(C)C)c1 [Example 72, 4′-((2-butyl-4-oxo-1,3-diazaspiro[4.4]non-1-en-3-yl)methyl)-N-(4-chloro-5-methylisoxazol-3-yl)-2′-(isopropoxymethyl)-[1,1′-biphenyl]-2-sulfonamide] | 6.1 | 

Now from value to molecule, other results behind:

IC50 (AT1 receptors) [nM] | Structure (SMILES) | other results
10 | CCCCC1=NC2(CCCC2)C(=O)N1Cc1ccc(-c2ccccc2S(=O)(=O)Nc2noc(C)c2C)c(COC2CC2)c1 [Example 13, 4′-((2-butyl-4-oxo-1,3-diazaspiro[4.4]non-1-en-3-yl)methyl)-2′-(cyclopropoxymethyl)-N-(4,5-dimethylisoxazol-3-yl)-[1,1′-biphenyl]-2-sulfonamide] | 
8.6 | CCCCC1=NC2(CCCC2)C(=O)N1Cc1ccc(-c2ccccc2S(=O)(=O)Nc2noc(C)c2Cl)c(COC2CC2)c1 [Example 52, 4′-((2-butyl-4-oxo-1,3-diazaspiro[4.4]non-1-en-3-yl)methyl)-N-(4-chloro-5-methylisoxazol-3-yl)-2′-(cyclopropoxymethyl)-[1,1′-biphenyl]-2-sulfonamide] | 
5.2 | CCCCC1=NC2(CCCC2)C(=O)N1Cc1ccc(-c2ccccc2S(=O)(=O)Nc2noc(C)c2Cl)c(COCC2CC2)c1 [Example 85, 4′-((2-butyl-4-oxo-1,3-diazospiro[4.4]non-1-en-3-yl)methyl)-N-(4-chloro-5-methylisoxazol-3-yl)-2′-((cyclopropylmethoxy)methyl)-[1,1′-biphenyl]-2-sulfonamide] | 
6.9 | CCCCC1=NC2(CCCC2)C(=O)N1Cc1ccc(-c2ccccc2S(=O)(=O)Nc2noc(C)c2C)c(COCC2CC2)c1 [Example 14, 4′-((2-butyl-4-oxo-1,3-diazaspiro[4.4]non-1-en-3-yl)methyl)-2′-((cyclopropylmethoxy)methyl)-N-(4,5-dimethylisoxazol-3-yl)-[1,1′-biphenyl]-2-sulfonamide] | AUC(0-inf) [1]: 11300 ng·h/mL; Cmax [1]: 2320 ng/mL; Tmax [1]: 0.5 h; MRT inf ([1]; read-out: MRT0-∞): 5.3 h
